Test results reported in PubChem BioAssay AID256 (DTP/NCI, 2004).
Several values for one entry are separate records, joined by “and”; a condition that tells them apart may be missing. Equal entries are not always repeated. Toxic doses and inconclusive results are not listed. How the source made its calls: active means survival T/C of 150% or more; inactive means T/C below 125% in these data.

System: CD2F1 mice, L1210 leukemia ip, survival T/C
Test: NCI In Vivo Anticancer Drug Screen. Data for tumor model L1210 Leukemia (intraperitoneal) in CD2F1 (CDF1) mice
Settings: endpoint: mean survival time, higher = longer survival
How it was run: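 Activity against a transplanted murine tumor was judged by comparing the compound group with a vehicle group. The outcome in the treated animals was divided by that in the controls.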

[1] = dose: 25.0 mg/kg/injection, schedule: Q01DX009 (ip), vehicle: saline with Tween-80
[2] = dose: 50.0 mg/kg/injection, schedule: Q01DX009 (ip), vehicle: saline with Tween-80
[3] = dose: 12.5 mg/kg/injection, schedule: Q01DX009 (ip), vehicle: saline with Tween-80

Measured: T/C

O=C(COc1ccc(Cl)c(Cl)c1)NCc1cccc([N+](=O)[O-])c1
inactive: dose: 75.0 mg/kg/injection, schedule: Q01DX001 (ip), vehicle: saline with Tween-80 93 % of control | dose: 150.0 mg/kg/injection, schedule: Q01DX001 (ip), vehicle: saline with Tween-80 88 % of control | dose: 300.0 mg/kg/injection, schedule: Q01DX001 (ip), vehicle: saline with Tween-80 86 % of control

NC(CSS(=O)(=O)O)=NCCCCN=C(N)CSS(=O)(=O)O
inactive: dose: 6.25 mg/kg/injection, schedule: Q04DX002 (ip), vehicle: saline with Tween-80 103 % of control | dose: 12.5 mg/kg/injection, schedule: Q04DX002 (ip), vehicle: saline with Tween-80 106 % of control | dose: 25.0 mg/kg/injection, schedule: Q04DX002 (ip), vehicle: saline with Tween-80 95 % of control

C=CC1C2C=CC(CC2)C1O (stereo not given)
inactive: dose: 100.0 mg/kg/injection, schedule: Q04DX003 (ip), vehicle: saline with Tween-80 98 % of control | dose: 200.0 mg/kg/injection, schedule: Q04DX003 (ip), vehicle: saline with Tween-80 101 % of control | dose: 400.0 mg/kg/injection, schedule: Q04DX003 (ip), vehicle: saline with Tween-80 104 % of control

O=C(O)CCC(=O)O
inactive: dose: 10.0 mg/kg/injection, schedule: Q01DX009 (ip), vehicle: saline 104 % of control | dose: 10.0 mg/kg/injection, schedule: Q01DX009 (ip), vehicle: water 95 % of control and 98 % of control | dose: 20.0 mg/kg/injection, schedule: Q01DX001 (ip), vehicle: saline 104 % of control | dose: 20.0 mg/kg/injection, schedule: Q01DX001 (ip), vehicle: water 95 % of control and 98 % of control | dose: 20.0 mg/kg/injection, schedule: Q01DX009 (ip), vehicle: saline 97 % of control | dose: 20.0 mg/kg/injection, schedule: Q01DX009 (ip), vehicle: water 101 % of control and 98 % of control | dose: 20.0 mg/kg/injection, schedule: Q04DX003 (ip), vehicle: saline 96 % of control | dose: 20.0 mg/kg/injection, schedule: Q04DX003 (ip), vehicle: water 98 % of control | dose: 40.0 mg/kg/injection, schedule: Q01DX001 (ip), vehicle: saline 104 % of control | dose: 40.0 mg/kg/injection, schedule: Q01DX001 (ip), vehicle: water 103 % of control and 101 % of control | dose: 40.0 mg/kg/injection, schedule: Q01DX009 (ip), vehicle: saline 104 % of control | dose: 40.0 mg/kg/injection, schedule: Q01DX009 (ip), vehicle: water 97 % of control and 95 % of control | dose: 40.0 mg/kg/injection, schedule: Q04DX003 (ip), vehicle: saline 102 % of control | dose: 40.0 mg/kg/injection, schedule: Q04DX003 (ip), vehicle: water 96 % of control | dose: 80.0 mg/kg/injection, schedule: Q01DX001 (ip), vehicle: saline 103 % of control | dose: 80.0 mg/kg/injection, schedule: Q01DX001 (ip), vehicle: water 97 % of control | dose: 80.0 mg/kg/injection, schedule: Q01DX009 (ip), vehicle: saline 104 % of control | dose: 80.0 mg/kg/injection, schedule: Q01DX009 (ip), vehicle: water 95 % of control and 97 % of control | dose: 80.0 mg/kg/injection, schedule: Q04DX003 (ip), vehicle: saline 98 % of control | dose: 80.0 mg/kg/injection, schedule: Q04DX003 (ip), vehicle: water 91 % of control and 96 % of control | dose: 160.0 mg/kg/injection, schedule: Q01DX001 (ip), vehicle: saline 101 % of control | dose: 160.0 mg/kg/injection, schedule: Q01DX001 (ip), vehicle: water 98 % of control and 93 % of control | dose: 160.0 mg/kg/injection, schedule: Q01DX009 (ip), vehicle: saline 98 % of control | dose: 160.0 mg/kg/injection, schedule: Q01DX009 (ip), vehicle: water 98 % of control and 90 % of control | dose: 160.0 mg/kg/injection, schedule: Q04DX003 (ip), vehicle: saline 101 % of control | dose: 160.0 mg/kg/injection, schedule: Q04DX003 (ip), vehicle: water 98 % of control and 93 % of control | dose: 320.0 mg/kg/injection, schedule: Q01DX001 (ip), vehicle: saline 106 % of control | dose: 320.0 mg/kg/injection, schedule: Q01DX001 (ip), vehicle: water 101 % of control | dose: 320.0 mg/kg/injection, schedule: Q04DX003 (ip), vehicle: saline 98 % of control | dose: 320.0 mg/kg/injection, schedule: Q04DX003 (ip), vehicle: water 87 % of control and 98 % of control | dose: 640.0 mg/kg/injection, schedule: Q01DX001 (ip), vehicle: saline 103 % of control | dose: 640.0 mg/kg/injection, schedule: Q01DX001 (ip), vehicle: water 101 % of control

C[CH2][Sn]([CH2]C)([O]S(=O)(=O)CC12CCC(CC1=O)C2(C)C)[O]S(=O)(=O)CC12CCC(CC1=O)C2(C)C
inactive: dose: 1.56 mg/kg/injection, schedule: Q01DX009 (ip), vehicle: saline 94 % of control | dose: 3.12 mg/kg/injection, schedule: Q01DX009 (ip), vehicle: saline 94 % of control | dose: 6.25 mg/kg/injection, schedule: Q01DX009 (ip), vehicle: saline 103 % of control | dose: 12.5 mg/kg/injection, schedule: Q01DX009 (ip), vehicle: saline 113 % of control | dose: 25.0 mg/kg/injection, schedule: Q01DX009 (ip), vehicle: saline 111 % of control

CCCCCCCCCCCCCCCC(=O)NCCN(CC)CC
inactive: [1] 95 % of control | [2] 98 % of control | dose: 75.0 mg/kg/injection, schedule: Q04DX003 (ip), vehicle: saline with Tween-80 97 % of control | dose: 150.0 mg/kg/injection, schedule: Q01DX001 (ip), vehicle: saline 98 % of control

C=Cc1ccncc1
inactive: [3] 91 % of control | [1] 95 % of control | [2] 98 % of control

Clc1ccc(CN2COc3c(ccc4cccnc34)C2)cc1Cl
inactive: [3] 95 % of control and 97 % of control | [1] 92 % of control and 105 % of control | [2] 94 % of control and 105 % of control | dose: 100.0 mg/kg/injection, schedule: Q01DX009 (ip), vehicle: saline with Tween-80 103 % of control and 110 % of control | dose: 200.0 mg/kg/injection, schedule: Q01DX009 (ip), vehicle: saline with Tween-80 95 % of control | dose: 400.0 mg/kg/injection, schedule: Q01DX009 (ip), vehicle: saline with Tween-80 94 % of control

CCOC(=O)/C=C(C)/C=C/C=C(/C)CCC=C(C)C
inactive: dose: 100.0 mg/kg/injection, schedule: Q04DX002 (ip), vehicle: saline with Tween-80 100 % of control | dose: 200.0 mg/kg/injection, schedule: Q04DX002 (ip), vehicle: saline with Tween-80 100 % of control | dose: 400.0 mg/kg/injection, schedule: Q04DX002 (ip), vehicle: saline with Tween-80 92 % of control

Nc1nc(N)c2cc(CCc3ccccc3)ccc2n1
inactive: dose: 6.25 mg/kg/injection, schedule: Q01DX009 (ip), vehicle: saline with Tween-80 105 % of control | dose: 6.25 mg/kg/injection, schedule: Q04DX003 (ip), vehicle: saline with Tween-80 98 % of control | [3] 100 % of control | dose: 12.5 mg/kg/injection, schedule: Q04DX003 (ip), vehicle: saline with Tween-80 98 % of control | [1] 104 % of control | dose: 25.0 mg/kg/injection, schedule: Q04DX003 (ip), vehicle: saline with Tween-80 98 % of control | dose: 50.0 mg/kg/injection, schedule: Q01DX009 (ip), vehicle: Klucel (hydroxypropylcellulose) (HPC) 106 % of control

Fc1ccccc1OCC1CO1 (stereo not given)
inactive: dose: 100.0 mg/kg/injection, schedule: Q01DX001 (ip), vehicle: saline 114 % of control | dose: 200.0 mg/kg/injection, schedule: Q01DX001 (ip), vehicle: saline 110 % of control | dose: 400.0 mg/kg/injection, schedule: Q01DX001 (ip), vehicle: saline 108 % of control

CN(C)CCOS(C)(=O)=O
inactive: dose: 100.0 mg/kg/injection, schedule: Q04DX003 (ip), vehicle: saline 100 % of control | dose: 200.0 mg/kg/injection, schedule: Q04DX003 (ip), vehicle: saline 98 % of control | dose: 400.0 mg/kg/injection, schedule: Q04DX003 (ip), vehicle: saline 100 % of control
